Activity calls are given as the source filed them.
Columns and labels:
[1] = target: T1, Leucine-rich repeat serine/threonine-protein kinase 2 (Homo sapiens, UniProt Q5S007); assay: Inhibition of wild-type LRRK2 expressed in HEK293 cells using nictide and [gamma32]ATP as substrate
[2] = target: T1, Leucine-rich repeat serine/threonine-protein kinase 2; assay: Inhibition of wild type LRRK2 phosphorylation at Ser910 in human lymphoblastoid cells at 0.03 to 3 uM after 90 mins by Western blot analysis; format: cell-based
[3] = target: T1, Leucine-rich repeat serine/threonine-protein kinase 2; assay: Inhibition of wild type LRRK2 phosphorylation at Ser935 in human lymphoblastoid cells at 0.03 to 3 uM after 90 mins by Western blot analysis; format: cell-based
Mus musculus [4] = assay: Inhibition of LRRK2 phosphorylation at Ser910 in C57BL/6 mouse kidney at 100 mg/kg, po administered for 8 hrs followed by 2 hrs dosing; format: functional, organism-based; design: dose 100 mg/kg
Mus musculus [5] = assay: Inhibition of LRRK2 phosphorylation at Ser935 in C57BL/6 mouse kidney at 100 mg/kg, po administered for 8 hrs followed by 2 hrs dosing; format: functional, organism-based; design: dose 100 mg/kg
Mus musculus [6] = assay: Inhibition of LRRK2 phosphorylation at Ser910 in C57BL/6 mouse spleen at 100 mg/kg, po administered for 8 hrs followed by 2 hrs dosing; format: functional, organism-based; design: dose 100 mg/kg
Mus musculus [7] = assay: Inhibition of LRRK2 phosphorylation at Ser935 in C57BL/6 mouse spleen at 100 mg/kg, po administered for 8 hrs followed by 2 hrs dosing; format: functional, organism-based; design: dose 100 mg/kg
[8] = target: T1, Leucine-rich repeat serine/threonine-protein kinase 2; conditions: HEK293; 0.03 to 3 uM
Description: Inhibition of wild-type LRRK2 phosphorylation at Ser935 expressed in HEK293 cells at 0.03 to 3 uM after 90 mins by immunoblot analysis

[9] = target: T1, Leucine-rich repeat serine/threonine-protein kinase 2; conditions: HEK293; 0.03 to 3 uM; remark: listed apart in the source
Description: Inhibition of wild-type LRRK2 phosphorylation at Ser910 expressed in HEK293 cells at 0.03 to 3 uM after 90 mins by immunoblot analysis

T1 sequence (Q5S007 whole entry): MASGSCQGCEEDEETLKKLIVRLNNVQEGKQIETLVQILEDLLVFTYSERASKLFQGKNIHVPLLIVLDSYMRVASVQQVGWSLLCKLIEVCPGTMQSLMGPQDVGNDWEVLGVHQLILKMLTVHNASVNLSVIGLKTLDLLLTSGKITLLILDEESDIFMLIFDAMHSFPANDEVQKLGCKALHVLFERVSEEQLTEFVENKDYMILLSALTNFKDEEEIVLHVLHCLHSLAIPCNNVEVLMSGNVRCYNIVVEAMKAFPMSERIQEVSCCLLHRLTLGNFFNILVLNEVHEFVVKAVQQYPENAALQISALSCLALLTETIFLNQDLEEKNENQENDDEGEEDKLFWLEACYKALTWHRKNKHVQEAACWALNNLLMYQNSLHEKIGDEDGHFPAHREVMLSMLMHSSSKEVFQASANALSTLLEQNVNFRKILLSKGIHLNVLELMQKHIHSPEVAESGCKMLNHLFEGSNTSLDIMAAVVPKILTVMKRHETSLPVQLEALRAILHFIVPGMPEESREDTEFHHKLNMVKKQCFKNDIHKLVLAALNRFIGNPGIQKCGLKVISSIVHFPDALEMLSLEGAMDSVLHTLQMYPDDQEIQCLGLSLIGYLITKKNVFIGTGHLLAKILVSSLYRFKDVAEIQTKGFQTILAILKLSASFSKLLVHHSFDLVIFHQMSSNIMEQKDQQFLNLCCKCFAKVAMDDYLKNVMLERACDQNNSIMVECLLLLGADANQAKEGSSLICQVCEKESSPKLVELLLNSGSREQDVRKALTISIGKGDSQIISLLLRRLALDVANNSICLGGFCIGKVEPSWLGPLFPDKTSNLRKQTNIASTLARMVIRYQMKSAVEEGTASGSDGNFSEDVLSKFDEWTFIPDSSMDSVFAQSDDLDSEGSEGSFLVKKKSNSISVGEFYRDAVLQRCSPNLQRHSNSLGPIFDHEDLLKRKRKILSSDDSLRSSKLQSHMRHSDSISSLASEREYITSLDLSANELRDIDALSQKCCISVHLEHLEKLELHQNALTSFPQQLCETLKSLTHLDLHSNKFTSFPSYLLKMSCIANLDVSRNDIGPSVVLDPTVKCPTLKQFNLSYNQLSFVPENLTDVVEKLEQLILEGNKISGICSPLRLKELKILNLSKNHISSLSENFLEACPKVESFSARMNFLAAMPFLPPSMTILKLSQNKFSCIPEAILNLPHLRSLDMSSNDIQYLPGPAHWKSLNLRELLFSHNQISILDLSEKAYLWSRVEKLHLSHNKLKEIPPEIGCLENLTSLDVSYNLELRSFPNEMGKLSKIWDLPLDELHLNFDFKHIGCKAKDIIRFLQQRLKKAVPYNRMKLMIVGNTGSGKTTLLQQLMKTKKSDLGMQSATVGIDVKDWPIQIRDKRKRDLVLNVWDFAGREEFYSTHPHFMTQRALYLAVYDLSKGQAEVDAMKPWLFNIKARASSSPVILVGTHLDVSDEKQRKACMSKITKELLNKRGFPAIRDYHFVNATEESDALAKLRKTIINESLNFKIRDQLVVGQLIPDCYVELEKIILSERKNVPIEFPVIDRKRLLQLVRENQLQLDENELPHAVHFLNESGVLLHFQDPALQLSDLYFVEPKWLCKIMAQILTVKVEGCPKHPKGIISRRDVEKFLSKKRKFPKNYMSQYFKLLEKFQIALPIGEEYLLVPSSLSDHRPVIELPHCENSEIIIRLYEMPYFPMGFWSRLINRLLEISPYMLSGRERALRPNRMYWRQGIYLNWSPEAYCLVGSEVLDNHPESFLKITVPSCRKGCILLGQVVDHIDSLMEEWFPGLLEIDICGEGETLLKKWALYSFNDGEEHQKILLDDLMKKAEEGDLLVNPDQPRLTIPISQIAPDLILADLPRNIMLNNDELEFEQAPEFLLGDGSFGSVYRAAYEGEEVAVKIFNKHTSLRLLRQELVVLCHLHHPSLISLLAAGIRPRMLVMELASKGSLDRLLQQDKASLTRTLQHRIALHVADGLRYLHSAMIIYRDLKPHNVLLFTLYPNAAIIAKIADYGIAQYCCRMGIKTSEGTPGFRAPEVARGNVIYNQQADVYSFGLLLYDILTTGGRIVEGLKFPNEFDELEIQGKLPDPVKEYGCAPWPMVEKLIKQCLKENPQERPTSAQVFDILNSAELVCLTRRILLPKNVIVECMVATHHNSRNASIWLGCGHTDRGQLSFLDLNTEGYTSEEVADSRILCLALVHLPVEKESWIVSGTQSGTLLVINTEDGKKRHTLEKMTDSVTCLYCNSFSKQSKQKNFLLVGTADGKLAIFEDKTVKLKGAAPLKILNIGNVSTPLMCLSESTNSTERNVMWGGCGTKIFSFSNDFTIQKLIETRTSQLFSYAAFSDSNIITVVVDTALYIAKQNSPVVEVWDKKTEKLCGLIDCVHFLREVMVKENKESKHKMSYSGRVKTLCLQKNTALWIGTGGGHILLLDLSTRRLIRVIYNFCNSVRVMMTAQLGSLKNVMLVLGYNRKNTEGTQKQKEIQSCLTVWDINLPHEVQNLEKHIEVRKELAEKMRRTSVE

COc1cc(C(=O)N2CCC(N3CCN(C)CC3)CC2)ccc1Nc1ncc2c(n1)N(C)c1ccccc1C(=O)N2C
active: inhibition [2] | inhibition [3] | inhibition (Mus musculus [4]) | inhibition (Mus musculus [5]) | inhibition (Mus musculus [6]) | inhibition (Mus musculus [7]) | inhibition [8] | inhibition [9]
13 nM: IC50 [1]
